# Reference: ChEMBL document CHEMBL1201862, “PubChem BioAssay data set” (2004)
# The source made the active and inactive calls.
# Tests used:
# CAAX prenyl protease 1 = CAAX prenyl protease 1 (Saccharomyces cerevisiae S288c, UniProt P47154); experiment: yeast CAAX protease Ste24 inhibition – biochemical, S. cerevisiae, plate reader, cherry-pick, dose response (AID 488815)
# Trypsin = Trypsin (Sus scrofa, UniProt P00761); experiment: trypsin protease activity blockade – biochemical, quenched peptide fluorescence, cherry-pick, selectivity assay for Rce1 protease inhibitor project, dose response (AID 488789)
# [1] = biological target: T1, Induced myeloid leukemia cell differentiation protein Mcl-1 (Homo sapiens, UniProt Q07820); assay type: functional
# [2] = biological target: T2, Voltage-gated N-type calcium channel alpha-1B subunit/Amyloid beta A4 precursor protein-binding family A member 1 (Homo sapiens, UniProt Q00975+Q02410); assay type: protein assay
# Phospholipase A2 = Phospholipase A2 (Homo sapiens, UniProt P04054); assay type: functional;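 further: confirmatory dose-response counterscreen on phospholipase A2, testing hits that came from an ultra-high-throughput screen for ATG4B inhibitors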
# [3] = biological target: Dual specificity protein phosphatase 6 (Rattus norvegicus, UniProt Q64346); experiment: inhibition of rat DUSP6 enzyme activity – biochemical, in vitro, primary screen (AID 425)
# Cysteine protease ATG4B = biological target: T3, Cysteine protease ATG4B (Homo sapiens, UniProt Q9Y4P1); assay type: functional;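 further: Fluorescence-based dose-response confirmation assay measuring inhibition of ATG4B activity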
# T3 sequence (Q9Y4P1 whole entry): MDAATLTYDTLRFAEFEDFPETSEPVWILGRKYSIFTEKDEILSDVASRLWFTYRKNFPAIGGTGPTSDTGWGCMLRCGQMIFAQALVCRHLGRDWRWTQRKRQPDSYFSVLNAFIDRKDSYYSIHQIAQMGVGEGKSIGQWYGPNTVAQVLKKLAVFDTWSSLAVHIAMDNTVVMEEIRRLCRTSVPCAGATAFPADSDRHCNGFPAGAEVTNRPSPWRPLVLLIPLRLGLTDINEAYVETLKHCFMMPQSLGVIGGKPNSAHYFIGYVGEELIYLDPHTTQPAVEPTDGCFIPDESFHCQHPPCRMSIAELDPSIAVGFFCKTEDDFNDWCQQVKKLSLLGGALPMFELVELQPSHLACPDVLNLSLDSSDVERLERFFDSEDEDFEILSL
# [4] = biological target: Eukaryotic translation initiation factor 4E (Mus musculus, UniProt P63073); experiment: blockers of eIF4G binding by eIF4E – biochemical, TR-FRET, dose response (AID 855); assay type: functional;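 further: potency for disrupting eIF4E binding to eIF4GI seen as loss of FRET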
# [5] = biological target: T4, Dual specificity protein phosphatase 3 (Homo sapiens, UniProt P51452); experiment: VHR1 phosphatase inhibitors, primary screen, biochemical, absorbance, uHTS (AID 1654)
# [6] = biological target: T4, Dual specificity protein phosphatase 3; experiment: VHR1 phosphatase inhibitors, biochemical (AID 1878)
# NS3 = NS3 (Hepatitis C virus, UniProt A3EZJ3); experiment: PubChem AID 2173; design: species or system Hepacivirus hominis
# [7] = biological target: T1, Induced myeloid leukemia cell differentiation protein Mcl-1; experiment: blockers of MCL1 binding to BIM peptide – biochemical, fluorescence polarization, BIM-BH3 peptide, 1536-well, dose response (AID 2217)
# [8] = antiviral protection against BTV-induced cell death – arbovirus, BSR cells, confirmation (AID 1250); assay type: functional;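 further: protection from viral cytopathic effect measured as cell viability by ATP luminescence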
# [9] = biological target: T2, Voltage-gated N-type calcium channel alpha-1B subunit/Amyloid beta A4 precursor protein-binding family A member 1; assay type: protein assay; remark: listed apart in the source
# Bcl-2-like protein 1 = Bcl-2-like protein 1 (Homo sapiens, UniProt Q07817); experiment: blockers of BCLXL peptide binding – biochemical, fluorescence polarization, 1536-well, selectivity assay for MCL1 inhibitor project, dose response (AID 2218)
# Mu-type opioid receptor [10] = biological target: T5, Mu-type opioid receptor (Homo sapiens, UniProt P35372); experiment: mu opioid receptor blockers – image-based, SAR follow-up (AID 2420); assay type: functional;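 further: compounds added before stimulation of receptor with agonist DAMGO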
# [11] = biological target: T6, Kappa-type opioid receptor (Homo sapiens, UniProt P41145); experiment: kappa opioid receptor blockers, cell-based, luminescence, beta-arrestin, SAR follow-up (AID 2285); assay type: functional
# [12] = biological target: T6, Kappa-type opioid receptor; experiment: kappa opioid receptor activation potency – imaging, image-based, SAR follow-up (AID 2359); assay type: functional
# [13] = biological target: T6, Kappa-type opioid receptor; experiment: kappa opioid receptor blockers, image-based, SAR follow-up (AID 2348); assay type: functional
# [14] = biological target: T7, Delta-type opioid receptor (Homo sapiens, UniProt P41143); experiment: delta opioid receptor blockers – image-based, SAR follow-up (AID 2357); assay type: functional
# Mu-type opioid receptor [15] = biological target: T5, Mu-type opioid receptor; experiment: mu opioid receptor activators, image-based, SAR follow-up (AID 2352); assay type: functional
# [16] = biological target: T7, Delta-type opioid receptor; experiment: DOR agonists, SAR follow-up, image-based (AID 2370); assay type: functional
# T6 sequence (P41145 whole entry): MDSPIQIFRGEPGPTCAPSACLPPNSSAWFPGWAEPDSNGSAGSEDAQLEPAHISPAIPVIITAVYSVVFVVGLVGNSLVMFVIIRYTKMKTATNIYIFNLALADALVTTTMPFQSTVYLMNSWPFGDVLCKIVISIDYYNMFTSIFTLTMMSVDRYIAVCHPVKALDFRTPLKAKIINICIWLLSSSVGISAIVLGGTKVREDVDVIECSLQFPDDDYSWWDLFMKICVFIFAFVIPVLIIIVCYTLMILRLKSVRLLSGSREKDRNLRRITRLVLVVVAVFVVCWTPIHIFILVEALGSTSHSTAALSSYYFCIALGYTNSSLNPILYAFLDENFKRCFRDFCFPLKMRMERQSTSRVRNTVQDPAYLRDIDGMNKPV
# T7 sequence (P41143 whole entry): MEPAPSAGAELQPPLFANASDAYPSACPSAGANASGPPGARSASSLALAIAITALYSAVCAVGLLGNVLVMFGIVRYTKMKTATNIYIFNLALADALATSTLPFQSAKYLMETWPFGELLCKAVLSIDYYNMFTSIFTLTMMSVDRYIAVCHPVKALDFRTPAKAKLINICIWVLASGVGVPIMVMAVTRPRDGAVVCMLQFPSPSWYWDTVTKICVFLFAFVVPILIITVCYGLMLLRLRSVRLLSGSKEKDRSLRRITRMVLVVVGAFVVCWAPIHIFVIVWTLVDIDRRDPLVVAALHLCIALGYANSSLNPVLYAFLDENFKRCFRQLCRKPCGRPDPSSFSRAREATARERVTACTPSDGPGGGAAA
# T1 sequence (Q07820 whole entry): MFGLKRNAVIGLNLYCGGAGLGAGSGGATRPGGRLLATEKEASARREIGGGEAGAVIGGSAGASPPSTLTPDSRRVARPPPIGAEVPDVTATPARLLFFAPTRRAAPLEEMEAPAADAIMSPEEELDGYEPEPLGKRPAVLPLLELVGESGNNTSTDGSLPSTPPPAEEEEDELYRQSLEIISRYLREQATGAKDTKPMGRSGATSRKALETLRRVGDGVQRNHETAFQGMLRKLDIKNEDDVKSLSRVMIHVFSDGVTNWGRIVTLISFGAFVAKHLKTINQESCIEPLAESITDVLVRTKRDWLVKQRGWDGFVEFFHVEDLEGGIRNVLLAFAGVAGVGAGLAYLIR
# T4 sequence (P51452 whole entry): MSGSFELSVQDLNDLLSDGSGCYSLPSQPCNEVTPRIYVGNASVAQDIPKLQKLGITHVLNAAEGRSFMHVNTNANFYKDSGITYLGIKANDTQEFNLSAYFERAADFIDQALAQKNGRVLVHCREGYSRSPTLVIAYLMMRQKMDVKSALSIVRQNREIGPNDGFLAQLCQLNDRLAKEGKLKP
# T2 sequence (Q00975 whole entry): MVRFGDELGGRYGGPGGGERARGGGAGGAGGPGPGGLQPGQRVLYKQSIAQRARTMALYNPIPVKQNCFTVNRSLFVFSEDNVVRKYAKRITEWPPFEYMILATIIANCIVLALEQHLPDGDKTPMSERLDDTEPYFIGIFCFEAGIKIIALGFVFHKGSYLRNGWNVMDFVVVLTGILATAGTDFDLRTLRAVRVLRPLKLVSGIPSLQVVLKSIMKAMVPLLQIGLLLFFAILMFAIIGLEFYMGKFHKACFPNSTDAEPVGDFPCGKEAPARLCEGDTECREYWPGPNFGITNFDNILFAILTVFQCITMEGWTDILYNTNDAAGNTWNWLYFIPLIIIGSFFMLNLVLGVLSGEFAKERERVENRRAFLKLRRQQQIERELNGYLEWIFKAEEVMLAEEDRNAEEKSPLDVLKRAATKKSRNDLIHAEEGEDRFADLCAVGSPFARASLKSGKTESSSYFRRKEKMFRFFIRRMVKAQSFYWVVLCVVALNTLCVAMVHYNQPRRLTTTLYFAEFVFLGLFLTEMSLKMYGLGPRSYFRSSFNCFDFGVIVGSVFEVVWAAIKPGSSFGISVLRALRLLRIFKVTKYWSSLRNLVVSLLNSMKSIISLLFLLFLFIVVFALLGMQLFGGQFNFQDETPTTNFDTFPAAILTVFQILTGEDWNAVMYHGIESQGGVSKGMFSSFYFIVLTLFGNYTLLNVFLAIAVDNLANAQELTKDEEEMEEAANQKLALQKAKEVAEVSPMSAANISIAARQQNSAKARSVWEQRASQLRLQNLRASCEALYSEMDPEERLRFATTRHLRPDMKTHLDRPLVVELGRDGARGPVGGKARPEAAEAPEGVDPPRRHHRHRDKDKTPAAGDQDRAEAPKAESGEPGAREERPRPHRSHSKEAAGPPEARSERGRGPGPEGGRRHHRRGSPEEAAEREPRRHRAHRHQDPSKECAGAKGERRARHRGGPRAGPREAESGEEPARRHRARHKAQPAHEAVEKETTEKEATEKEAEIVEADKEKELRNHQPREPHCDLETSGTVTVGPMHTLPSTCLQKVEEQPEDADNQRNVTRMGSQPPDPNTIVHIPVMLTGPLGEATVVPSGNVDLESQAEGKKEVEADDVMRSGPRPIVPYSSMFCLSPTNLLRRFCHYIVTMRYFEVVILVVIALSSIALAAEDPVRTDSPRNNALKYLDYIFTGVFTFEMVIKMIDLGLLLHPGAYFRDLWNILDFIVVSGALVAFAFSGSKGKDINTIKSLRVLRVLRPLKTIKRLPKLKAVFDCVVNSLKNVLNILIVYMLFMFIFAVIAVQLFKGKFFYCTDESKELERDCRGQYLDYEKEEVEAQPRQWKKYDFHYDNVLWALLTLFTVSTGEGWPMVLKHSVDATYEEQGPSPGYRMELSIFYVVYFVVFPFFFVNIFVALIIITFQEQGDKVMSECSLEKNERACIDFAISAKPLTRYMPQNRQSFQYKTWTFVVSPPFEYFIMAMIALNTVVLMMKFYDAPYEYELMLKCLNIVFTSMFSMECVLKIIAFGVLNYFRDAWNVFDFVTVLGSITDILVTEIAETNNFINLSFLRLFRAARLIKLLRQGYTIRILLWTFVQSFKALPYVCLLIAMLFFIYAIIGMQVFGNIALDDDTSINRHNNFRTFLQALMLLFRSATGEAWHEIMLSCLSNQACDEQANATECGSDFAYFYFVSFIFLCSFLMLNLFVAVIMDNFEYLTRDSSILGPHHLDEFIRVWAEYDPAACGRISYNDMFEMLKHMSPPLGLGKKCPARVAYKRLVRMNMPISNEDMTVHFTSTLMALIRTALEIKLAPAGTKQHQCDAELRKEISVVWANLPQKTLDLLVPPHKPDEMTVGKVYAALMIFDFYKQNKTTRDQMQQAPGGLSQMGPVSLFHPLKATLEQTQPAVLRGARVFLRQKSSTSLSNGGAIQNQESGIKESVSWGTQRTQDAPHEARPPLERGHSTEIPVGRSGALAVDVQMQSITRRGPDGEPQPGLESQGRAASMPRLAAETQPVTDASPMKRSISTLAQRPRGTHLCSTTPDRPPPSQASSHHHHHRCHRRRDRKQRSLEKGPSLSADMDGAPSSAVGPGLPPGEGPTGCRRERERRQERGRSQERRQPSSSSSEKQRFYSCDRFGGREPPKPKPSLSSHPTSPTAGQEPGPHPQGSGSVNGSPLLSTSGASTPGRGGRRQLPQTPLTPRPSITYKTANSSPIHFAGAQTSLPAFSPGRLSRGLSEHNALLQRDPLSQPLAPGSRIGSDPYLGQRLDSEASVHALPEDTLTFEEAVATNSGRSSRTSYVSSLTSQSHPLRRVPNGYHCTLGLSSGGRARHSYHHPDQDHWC
# T2 sequence (Q02410 whole entry): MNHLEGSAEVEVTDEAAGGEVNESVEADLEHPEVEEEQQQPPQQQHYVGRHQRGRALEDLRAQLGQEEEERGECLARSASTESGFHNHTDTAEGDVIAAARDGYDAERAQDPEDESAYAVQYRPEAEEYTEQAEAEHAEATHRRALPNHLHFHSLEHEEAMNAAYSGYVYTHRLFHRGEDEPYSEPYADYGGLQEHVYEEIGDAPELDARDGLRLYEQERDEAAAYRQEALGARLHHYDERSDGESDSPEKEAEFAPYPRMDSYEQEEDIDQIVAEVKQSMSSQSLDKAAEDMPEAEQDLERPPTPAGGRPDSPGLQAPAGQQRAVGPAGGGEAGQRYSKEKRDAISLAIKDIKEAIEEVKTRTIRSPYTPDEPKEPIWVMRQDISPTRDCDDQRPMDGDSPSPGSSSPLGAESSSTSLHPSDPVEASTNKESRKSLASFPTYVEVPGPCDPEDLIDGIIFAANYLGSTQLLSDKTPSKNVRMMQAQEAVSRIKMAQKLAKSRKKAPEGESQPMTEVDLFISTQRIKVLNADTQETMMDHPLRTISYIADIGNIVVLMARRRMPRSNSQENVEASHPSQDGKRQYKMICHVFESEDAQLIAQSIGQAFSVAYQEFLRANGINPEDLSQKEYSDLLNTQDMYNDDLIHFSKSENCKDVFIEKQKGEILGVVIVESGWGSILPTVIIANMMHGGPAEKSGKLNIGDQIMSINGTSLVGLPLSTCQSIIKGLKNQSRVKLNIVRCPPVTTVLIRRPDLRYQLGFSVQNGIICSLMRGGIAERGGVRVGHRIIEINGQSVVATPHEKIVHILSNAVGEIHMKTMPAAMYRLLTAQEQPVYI
# T5 sequence (P35372 whole entry): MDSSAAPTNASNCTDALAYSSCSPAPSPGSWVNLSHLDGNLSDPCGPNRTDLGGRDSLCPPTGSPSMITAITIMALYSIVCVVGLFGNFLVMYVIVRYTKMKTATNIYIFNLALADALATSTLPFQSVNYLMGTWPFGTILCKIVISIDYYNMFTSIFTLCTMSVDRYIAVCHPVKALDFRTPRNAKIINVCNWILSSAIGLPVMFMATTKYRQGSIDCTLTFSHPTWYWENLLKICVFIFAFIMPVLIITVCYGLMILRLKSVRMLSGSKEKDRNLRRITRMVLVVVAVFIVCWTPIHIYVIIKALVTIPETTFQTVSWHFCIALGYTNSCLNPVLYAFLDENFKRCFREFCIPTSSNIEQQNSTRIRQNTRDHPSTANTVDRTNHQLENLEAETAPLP
# Phospholipase A2, sequence (P04054 whole entry): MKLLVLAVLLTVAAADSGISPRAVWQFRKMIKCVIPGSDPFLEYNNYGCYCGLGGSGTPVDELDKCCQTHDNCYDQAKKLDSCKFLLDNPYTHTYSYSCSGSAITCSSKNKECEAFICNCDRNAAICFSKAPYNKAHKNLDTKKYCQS
compound,measurement,setting,value
CCCCNC(=O)C(CC)Sc1nc2sc(C(=O)OC)c(C)c2c(=O)n1N (configuration not stated),AC50,CAAX prenyl protease 1,8.14 µM (active)
same,AC50,Trypsin,0.985 µM (active)
COc1ccc(-n2cccc2/C=C2\C(=N)N3N=C(c4ccco4)SC3=NC2=O)cc1,IC50,[1],19.3 µM (active)
same,IC50,[2],> 50 µM (inactive)
same,IC50,Phospholipase A2,1.09 µM (active)
same,IC50,[3],9.04 µM (active)
same,IC50,Cysteine protease ATG4B,2.73 µM (active)
same,IC50,[4],50 µM (inactive)
same,IC50,[5],6.65 µM (active)
same,IC50,[6],2.27 µM (active)
same,IC50,NS3,7.79 µM (active)
same,IC50,[7],4.93 µM (active)
same,IC50,[8],33.2 µM (active)
same,IC50,[9],14.1 µM (active)
same,IC50,Bcl-2-like protein 1,> 109 µM (not active)
Oc1ccc(C=NNc2ccnc3cc(Cl)ccc23)cc1O,IC50,Mu-type opioid receptor [10],> 32 µM (inactive)
same,IC50,[11],> 10 µM (inactive)
same,EC50,[12],> 32 µM (inactive)
same,IC50,[13],24.8 µM (inactive)
same,IC50,[14],18.9 µM (inactive)
same,EC50,Mu-type opioid receptor [15],> 32 µM (inactive)
same,EC50,[16],> 32 µM (inactive)
